In patent US5994357A, “Method of treatment for interstitial cystitis” (priority 1994, dated 1999):
Structures can show the parent of a compound that is named as a salt.

Tests used:
[1] = format: in vivo, human (female patients); details: for relief by previous treatment: six DMSO treatments and one heparin treatment
Procedure: They were administered a 75 mg oral dose of hydroxyzine pamoate per day. After 5 days the burning sensation upon voiding and sharp pelvic pain disappeared. In two months, the extreme tenderness from their chest area to pelvic area also disappeared. After about 10 to 12 weeks frequency was eliminated. […] Upon discontinuing administration of hydroxyzine pamoate symptoms reappeared within 24 hours or less. After one year of treatment, the subject takes 50 mg and 25 mg of hydroxyzine pamoate, respectively, on alternating days, with continued 100% success.
This person three was diagnosed with interstitial cystitis in March 1989. […] Their symptoms included constant burning in the bladder, pain at the connection of the buttocks with the upper legs and painful sexual intercourse. They could not sleep although their need to urinate was only about four times per night. Sitting on "blue ice" packs wrapped in a cloth provided some relief from the buttock pain and the burning.
This is person one who experienced increasing problems over the last 10 years until it became difficult to function as a nurse, parent and spouse. […] They had not received any treatment since February 1990 and was experienceing a flare up of symptoms when they tried hydroxyzine-HCl. […]

Rat Bladder Mast Cells = assay: ID20 for histamine release, inhibition of mast cell secretion by H-1 receptor antagonists in vitro (Table 5); format: cell-based; details: inhibitory dose causing 20% inhibition, read-out: ID20 for Histamine Release from Rat Bladder Mast Cells
From the text: "Inhibitor of neurohormonal activation of mast cell secretion" refers to any substance or group of substances, devoid of any psychotropic effects which prevent the stimulation of mast cell secretion by hormones or molecules produced by nervous tissue.
(§1) More appropriate to interstitial cystitis, bladder mast cells can be triggered to secrete in situ using slices of rodent bladders in perfusion chambers and measuring secreted chemicals (Theoharides, T. C. and Sant, G. R. Bladder mast cell activation in interstitial cystitis. Seminars Urology 9:74-87, 1991).

bladder mast cells = assay: Inhibition of neurohormonal activation of bladder mast cell secretion; format: cell-based; details: for inhibition of neurohormonal activation of bladder mast cell secretion (in words): found by the applicant
From the text: "Inhibitor of neurohormonal activation of mast cell secretion" refers to any substance or group of substances, devoid of any psychotropic effects which prevent the stimulation of mast cell secretion by hormones or molecules produced by nervous tissue. Whether or not a pharmacologically active substance is an inhibitor of neurohormonal activation of mast cell secretion can be determined by using the following procedure: Mast cells purified from peritoneal cavities of rats and stimulated by a neuropeptide, such as somatostatin (Theoharides, T. C. and Douglas, W. W. Endocrinology 102:1637-1640, 1978), or rat brain slices stimulated by substance P in special perfusion chambers (Dimitriadou, V., Buzzi, M. G., Moskowitz, M. A. and Theoharides, T. C. Neuroscience 44:27-39, 1991) or rat bladder mast cells stimulated by carbachol in special perfusion chambers (Theoharides, T. C. and Sant, G. R. Seminars Urology […], 1991) will first be […] with concentration of the agents to be tested ranging from 0.1 μmol/L-to-100 μmol/L of solution for varying amounts of time at 37° C. to determine their ability to inhibit subsequent mast cell secretion as described above.
These compounds can be tested by preincubating mast cells purified from the peritoneal cavity of rats with various concentrations of compound, typically 0.1 μmol/L to 1,000 μmol/L, for various times at 37° C. before stimulating mast ctll secretion with a stimulus such as somatostatin (Theoharides, T. C. and Douglas, W. W. Somatostatin induces histamine secretion from rat peritoneal mast cells. Endocrinology 102:1637-1640, 1978).
as §1

[2] = cited from earlier work
[3] = cited from earlier work; remark: listed apart in the source
neurons = assay: Inhibition of neuropeptide release from neurons stimulated by high K^+; format: cell-based
[4] = Anticholinergic and anxiolytic properties; details: decreasing frequency
[5] = Example 2, patient three, since March 1991
[6] = Example 2, patient three, 25 mg
[7] = Example 1, patient two, 75 mg oral per day

In the case of `OCCOCCN1CCN(C(c2ccccc2)c2ccc(Cl)cc2)CC1` (racemic) [hydroxyzine-HCl], the “pain on sexual intercourse” value ([1]; Example 2, patient three) is reported as “no longer associated with severe bladder pain”, the quality of life ([1]; Example 2, patient three) is reported as “definitely improved the quality of their life” and the “tolerance of offending foods” value ([1]; Example 2, patient three) is reported as “they can eat some offending foods in small quantities”. For the same molecule, the “burning in the bladder” value [1, 5] was “the burning has subsided significantly”, the buttock pain [1, 5] was “the buttock pain is reduced” and the “symptoms on attempted withdrawal of the drug” value ([1]; Example 3, patient one, 2 or 3 occasions) was “definite increase in interstitial cystitissymptoms”. The bladder comfort ([1]; Example 3, patient one, 25 to 50 mg daily) was “almost total bladder comfort” and the control of symptoms ([1]; Example 3, patient one, daily since May 1990) was “remarkable control of symptoms”.

With `CN1CCC(=C2c3ccccc3CCc3cccnc32)CC1` [Azatadine] the IC20 (Rat Bladder Mast Cells) was 1000 nM and the “inhibition of neurohormonal activation of bladder mast cell secretion (in words)” value (bladder mast cells) was “inhibit neurohormonal activation of bladder mast cell secretion”.

With `CN1CCCC(n2nc(Cc3ccc(Cl)cc3)c3ccccc3c2=O)CC1` (stereo not drawn) [Azelastine] the IC20 (Rat Bladder Mast Cells) was 1000 nM and the “inhibition of neurohormonal activation of bladder mast cell secretion (in words)” value (bladder mast cells) was “inhibit neurohormonal activation of bladder mast cell secretion”.

In the case of `C[S+](C)[O-]` [DMSO, dimethylsulfoxide], the “relief by previous treatment” value ([1]; Example 2, patient three) is listed as “very limited relief”, the “improvement by previous treatment” value ([1]; Example 3, patient one) is listed as “fairly good improvement” and the pulmonary excretion ([2]; intravesical) is listed as “pulmonary excretion of a small percentage of the DMSO as dimethyl sulfide”. For the same molecule, the “side effects: bladder and urethra” value ([3]; intravesical) was “Bladder spasms and irritability may be experienced with DMSO treatment, as well as urethral burning during voiding” and the “side effects: breath odor and taste” value ([3]; intravesical, most patients) was “garlic-like breath odor and a similar taste in their mouths”.

For `OCCOCCN1CCN(C(c2ccccc2)c2ccc(Cl)cc2)CC1` (stereo not drawn) [Hydroxyzine], the IC20 (Rat Bladder Mast Cells) was 50000 nM, the “inhibition of secretion from stimulated bladder mast cells (in words)” value (bladder mast cells; Table 3, unique characteristics) was “inhibits secretion from stimulated bladder mast cells” and the “inhibition of neurohormonal activation of bladder mast cell secretion (in words)” value (bladder mast cells) was “inhibit neurohormonal activation of bladder mast cell secretion”. The “inhibition of neuropeptide release from neurons (in words)” value (neurons) was “inhibits neuropeptide release from neurons”, the “anticholinergic properties (in words)” value [4] was “strong anticholinergic properties decreasing frequency” and the “relief from frequency, dysuria, pain” value ([1]; 9 females, 25 mg twice - three times/day × 8 months, alternate 25 mg every other day past 8 months) was 80-100%. The “Problems (side effects)” value ([1]; human, in vivo) was “Mild sedation, weakness × 1 week”.

With `CN1CCC(=C2c3ccccc3CC(=O)c3sccc32)CC1` [Ketotifen] the “inhibition of neurohormonal activation of bladder mast cell secretion (in words)” value (bladder mast cells) was “inhibit neurohormonal activation of bladder mast cell secretion”.

For `CN(C)CCC=C1c2ccccc2CCc2ccccc21` [amitriptyline], the “success of previous treatment” value ([1]; Example 1, patient two, conventional methods and amitriptyline) was “limited success”, the “effect of previous treatment on sleep” value [1, 6] was “enabled them to sleep some” and the “foods bringing symptoms on previous treatment” value [1, 6] was “many foods still brought severe symptoms”. For the same molecule, the side effects ([3]; human, in vivo) was “troublesome side effects such as hypotension, tachycardia, anxiety, or palpitations”.

In the case of `O=C(O)COCCN1CCN(C(c2ccccc2)c2ccc(Cl)cc2)CC1` (stereo not drawn) [cetirizine], the “inhibition of neurohormonal activation of bladder mast cell secretion (in words)” value (bladder mast cells) is reported as “inhibit neurohormonal activation of bladder mast cell secretion”.

In the case of `OCCOCCN1CCN(C(c2ccccc2)c2ccc(Cl)cc2)CC1` (stereo not drawn) [hydroxyzine pamoate], the patient-reported state ([1]; Example 1, patient two) is reported as “felt 100% normal”, the “time to reappearance of symptoms upon discontinuing administration” value ([1]; Example 1, patient two) is reported as ≤ 24 h and the “time to disappearance of burning sensation upon voiding and sharp pelvic pain” value [1, 7] is reported as 5 days. For the same molecule, the “time to disappearance of extreme tenderness from chest area to pelvic area” value [1, 7] was “two” and the “continued success after one year of treatment” value ([1]; Example 1, patient two, 50 mg and 25 mg on alternating days) was 100%.

For `CN(C)CCN(Cc1ccccc1)c1ccccn1` [pyribenzamine], the “duration of the response” value ([3]; oral, 50 mg three times daily) is given as “variable” and the symptomatic improvement ([3]; oral, 50 mg three times daily) is given as “some symptomatic improvement”.

With heparin the “relief by previous treatment” value ([1]; Example 2, patient three) was “very limited relief”.

In the case of sodium pentosan polysulfate, the duration ([2]; must be taken numerous times per day) is listed as “short duration”, the “amount of drug reaching the site of treatment” value ([2]; oral) is listed as “only a small amount of the drug will reach the site of treatment” and the metabolism ([2]; oral) is listed as “primarily liver-metabolized”. The “replacement of the protective surface mucin” value ([3]; oral or intravesical administration) was “replace the protective surface mucin”.
